# From ChEMBL document CHEMBL5131546, “Discovery of 1H-Pyrazole Biaryl Sulfonamides as Novel G2019S-LRRK2 Kinase Inhibitors” (ACS Med Chem Lett, 2022)
# Key:
# [1] = MRT in CD-1 mouse at 2 mg/kg, po by LC-MS/MS analysis; format: ADME, organism-based; settings: in vivo
# [2] = Tmax in CD-1 mouse at 2 mg/kg, po by LC-MS/MS analysis; format: ADME, organism-based; settings: in vivo
# [3] = Clearance in CD-1 mouse at 0.5 mg/kg, iv by LC-MS/MS analysis; format: ADME, organism-based; settings: in vivo
# [4] = AUCinf in CD-1 mouse at 2 mg/kg, po by LC-MS/MS analysis; format: ADME, organism-based; design: time infinity, dose 2 mg/kg, route po; settings: in vivo
# [5] = Oral bioavailability in CD-1 mouse at 2 mg/kg by LC-MS/MS analysis; format: ADME, organism-based; settings: in vivo
# in vitro [6] = settings: mouse, liver microsomes
# [7] = AUCinf in CD-1 mouse at 0.5 mg/kg, iv by LC-MS/MS analysis; format: ADME, organism-based; design: time infinity, dose 0.5 mg/kg, route iv; settings: in vivo
# in vitro [8] = settings: human, liver microsomes
# [9] = Cmax in CD-1 mouse at 0.5 mg/kg, iv by LC-MS/MS analysis; format: ADME, organism-based; design: dose 0.5 mg/kg, route iv; settings: in vivo
# [10] = Half life in CD-1 mouse at 0.5 mg/kg, iv by LC-MS/MS analysis; format: ADME, organism-based; settings: in vivo
# [11] = MRT in CD-1 mouse at 0.5 mg/kg, iv by LC-MS/MS analysis; format: ADME, organism-based; settings: in vivo
# [12] = Cmax in CD-1 mouse at 2 mg/kg, po by LC-MS/MS analysis; format: ADME, organism-based; design: dose 2 mg/kg, route po; settings: in vivo
# [13] = Volume of distribution at steady state in CD-1 mouse at 0.5 mg/kg, iv by LC-MS/MS analysis; format: ADME, organism-based; settings: in vivo, read-out: Vdss
# in vitro [14] = settings: human, Caco-2
# [15] = Half life in CD-1 mouse at 2 mg/kg, po by LC-MS/MS analysis; format: ADME, organism-based; settings: in vivo
# in vitro [16] = settings: human, Caco-2; remark: listed apart in the source
smiles,measurement,setting,value
Cc1[nH]nc(-c2ccncc2)c1-c1ccc(-c2cccc(S(N)(=O)=O)c2)c(C2CC2)c1,MRT,[1],3.01 h
same,Tmax,[2],1 h
same,clearance,[3],33.5 mL/min/kg
same,AUC(0-inf),[4],2.55 µM·h
same,bioavailability,[5],111%
same,half-life at 40 min,in vitro [6],0.5 h
same,AUC(0-inf),[7],0.58 µM·h
same,half-life at 40 min,in vitro [8],2.65 h
same,Cmax,[9],580 nM
same,half-life,[10],0.8 h
same,MRT,[11],1.01 h
same,Cmax,[12],580 nM
same,Vd,[13],2 L/kg
same,"Papp B→A at 2 h, 10 µM",in vitro [14],27 ×10⁻⁶ cm/s
same,half-life,[15],1.25 h
same,"Papp A→B at 2 h, 10 µM",in vitro [16],8.78 ×10⁻⁶ cm/s
